This is an account of results in US7294643B2, “UK-1 analogues: methods of preparation and use” (Board of Regents, The University of Texas System, priority 2002, dated 2007).

The test system of one series is PC-3 cells. The series can be described thus: alamarBlue cytotoxicity assay, PC-3. The format is cell-based, human. Particulars: PC-3, alamarBlue. On the procedure: (§1) Cytotoxicity Assays. Cell culture cytotoxicity assays were performed using the. alamarBlue method, as described by Ahmed et al., J. Immun. Methods 1994, 170, 211-224, which is incorporated herein by reference. Briefly, aliquots of 100 μL of cell suspension (1.0-2.5×10^3 cells) was placed in 96-well microtiter plates in an atmosphere of 5% CO2 at 37° C. After 24 hours, 100 μL of culture medium and 2 μL of compound in vehicle (culture media with 40% pyridine) or vehicle alone were added, and the plates incubated an additional 72 hours. The final pyridine concentration in all cases was 0.4%; at this pyridine concentration there was no affect on the growth of cells compared to cells in culture media without added pyridine. […] After the culture media had been removed from each well, 200 μL of fresh media and 20 μL of 90% alamarBlue reagent were added, followed by an additional 6 h incubation. The fluorescent intensity was measured using a Spectrafluor Plus plate reader with excitation at 530 nm and emission at 590 nm. Results are reported as IC50 values, the average concentration required to produce a decrease of fluorescent intensity of 50% relative to vehicle-treated controls in two separate determinations.

For another series, the system named is MCF-7 cells. As to the kind of experiment: alamarBlue cytotoxicity assay, MCF-7. Type of series: cell-based. Particulars: Homo sapiens, MCF7; MCF-7, alamarBlue, 72 h. On the procedure: as §1
The test system of series [1] is methicillin-resistant S. aureus ATCC 43300. The series can be described thus: Antimicrobial bioassay, methicillin-resistant S. aureus. The format is cell-based, Staphylococcus aureus. On the procedure:
(§2) Antimicrobial Bioassay: Staphylococcus aureus ATCC 29213 and methicillin-resistant S. aureus ATCC 43300 (MRS) were obtained from the American Type Culture Collection (Rockville, Md.) and stored on agar slants at 4° C. until needed. Susceptibility testing was performed using a modified version of the NCCLS methods: “Methods for Dilution Antimicrobial Susceptibility Tests for Bacteria that Grow Aerobically,” M7-A4, Vol. 17, No. 2, NCCLS, (1997) and “Reference Method for Broth Dilution Antifungal Susceptibility Testing of Yeasts; Approved Standard,” M27-A, Vol. 17, No. 9, NCCLS, (1997), both of which are incorporated herein by reference. Microorganisms were subcultured prior to the assay by suspending cells from the slant in Eugon broth (BBL, Maryland) and incubating for 24 hours at 37° C. Inocula were prepared by diluting the subcultured organism in its incubation broth after comparison to the 0.5 McFarland Standard (a BaSO4 suspension) to afford final inocula ranges of S. aureus: 1.0-5.0×10^5 and MRS: 0.2-6.0×10^5 CFU/ml. Test compounds were dissolved in DMSO, serially-diluted using normal saline, and transferred in duplicate to 96 well flat-bottomed microtiter plates. The microbial inocula were added to the samples to achieve a final volume of 200 μl and final compound concentrations starting with 50 μg/ml. Drug [Ciprofloxacin (ICN Biomedicals, Ohio)] as well as growth and blank (media only) controls were added to each test plate. Plates were read at 630 nm using the EL-340 Biokinetics Reader (Bio-Tek Instruments, Vermont) prior to and after incubation at 37° C. for 24 hours. Percent growth was calculated and plotted versus concentration to afford the IC50, or sample concentration that affords 50% growth of the organism relative to controls.

A short description of series [2]: alamarBlue cytotoxicity, range over three cell lines. The format is cell-based. Particulars: human; range of concentrations required to inhibit growth of MCF-7, HT-29, and PC-3 cells by 50%. On the procedure: as §1
A further series concerns SK-N-MC. As to the kind of experiment: alamarBlue cytotoxicity assay, SK-N-MC. Type of series: cell-based. Particulars: Homo sapiens. On the procedure: as §1
Another series relates to SK-N-SH. As to the kind of experiment: alamarBlue cytotoxicity assay, SK-N-SH. The format is cell-based. Particulars: Homo sapiens. On the procedure: as §1
Another series has as its system BT-20. As to the kind of experiment: alamarBlue cytotoxicity assay, BT-20. The format is cell-based. The conditions noted are these: Homo sapiens; BT-20, alamarBlue. On the procedure: as §1
The next series deals with yeast, or fungi. Particulars: yeast, or fungi, concentrations as large as 250 μM; cited from earlier work.
Series [3] can be described thus: Metal ion binding by continuous variation, Mg2+. Particulars: Mg^2+, methanol, 1:1 complex. On the procedure:
(§3) Previous work indicated the metal ion binding mechanism of UK-1, so the method of continuous variation was used to determine the ability of selected UK-1analogues to bind a variety of metal ions. Methanolic solutions of UK-1 or UK-1 analogues and metal ion salts [Ca(NO3)2, Mg(NO3)2, Zn(NO3)2, or Fe(NO3)3] at various molar ratios, and 20 μM combined total concentration, were prepared and the absorbance at 418 nm was determined. […] Compound 2.1 does bind with Ca^2+ and Zn^2+ better than UK-1.
(§4) Continuous variation plots. A 100 μM solution of UK-1 or analogue and 100 AM solutions of Ca(NO3)2, Mg(NO3)2, Zn(NO3)2, or Fe(NO3)3 were prepared in methanol. From these stock solutions, 15 samples (1 mL) of varying mole fraction of the metal ion were prepared at a constant, combined concentration of 20 μM for the ligand and the metal ion. The change in absorbance was monitored from 500 to 200 nm for each sample using as a reference a 1 mL solution containing the same concentration of ligand as the sample being measured but without the metal ion. The maximum absorbance change was typically around 418 nm but varied somewhat for each metal ion. The absorbance at 418 nm was plotted as a function of the mole fraction of the metal ion and the maximum absorbance change was determined. The absorbance of a sample containing the metal ion concentration corresponding to this maximum change and a 15 fold excess of metal ion at this ligand concentration, subtracted from a reference containing the same concentration of ligand but no metal ion was used to normalize the curve and obtain the conditional formation constant as described in the paper to Likussar, W.; Boltz, D. F. Anal. Chem. 1971, 43, 1265-1272, which is incorporated herein by reference.

Series [4] has as its system Staphylococcus aureus ATCC 29213. As to the kind of experiment: Antimicrobial bioassay, S. aureus. Type of series: cell-based. Particulars: Staphylcoccus aureus, concentrations up to 50 μg/mL. On the procedure: as §2
Series [5] deals with gram-positive or gram negative bacteria. The conditions noted are these: gram-positive or gram negative bacteria, concentrations as large as 250 μM; cited from earlier work.
Series [6] deals with NGP neuroblastoma cell line. As to the kind of experiment: alamarBlue cytotoxicity assay, NGP. The format is cell-based. On the procedure: as §1
Series [7] in a line: Metal ion binding by continuous variation, Fe3+. Particulars: Fe^3+, methanol, 1:1 complex. On the procedure:
as §3, §4

Bounds are passed on as bounds.

Take `COC(=O)c1cccc2oc(-c3cccc4oc(-c5ccccc5O)nc34)nc12` [UK-1]: the IC50 with PC-3 cells (Homo sapiens, PC-3, 72 h) was 400 nM; in the series on PC-3 cells (72 h), 320 nM; in the series with MCF-7 cells, 1600 nM; in series [1] (Staphylococcus aureus, ATCC43300, Methacilline-resistant Staph. Aureus, growth inhibited by 50%, read-out: Staph. aureus IC50), greater than 50 µg/mL; with SK-N-MC it was 1100 nM; in the series with SK-N-SH it was 7000 nM. In addition, the figures for the IC50 (with BT-20; in series [6] (alamarBlue); in [6] (bound stated)) were 170 nM, 20 nM and less than 100 nM, respectively. The antibacterial effect entry in series [1] (methicillin-resistant S. aureus, concentrations up to 50 μg/mL) is “no indication of any antibacterial effect”; in series [4], “no indication of any antibacterial effect”. This compound came in with an IC50 at 72 h in series [2] of 320 to 65000 nM. In addition, the growth inhibition result in the series on yeast, or fungi was “does not inhibit the growth”; in series [5] it was “does not inhibit the growth”. For the same compound, the “Association constant for metal ion binding” value in series [3] is 2e+06 M⁻¹; in series [7], 250000 M⁻¹.
